Each structure is given as a SMILES string.

The results in this text go back to ChEMBL document CHEMBL1127901, “Conformationally constrained analogues of dag .8. Changes in PK-C binding affinity produced by isosteric groups of the 3-O-acyl function in 2-deoxy-L-ribonolactones” (Bioorg Med Chem Lett, 1994).

In the first assay the target is Protein kinase C (PKC). Nature of the assay: Inhibition of [3H]-PDBU binding to protein kinase C mixture. Format: protein assay, Rattus norvegicus.
By Ki is commonly meant a measure of affinity in units of concentration, obtained from inhibition or displacement. `CCCCCCCCCCCCCCOC(=O)[C@@H]1CC(=O)O[C@H]1CO`: the Ki was determined as 8070 nM.

On to `CCCCCCCCCCCCCCO[C@@H]1CC(=O)O[C@H]1CO`, for which the Ki turned out to be 3310 nM.

Consider `CCCCCCCCCCCCCCC(=O)[C@@H]1CC(=O)O[C@H]1CO`, for which the Ki is 50750 nM.

A further assay has as its target Protein kinase C alpha type (Rattus norvegicus, UniProt P05696). The assay is described as follows: Inhibition of [3H]PDBU binding to Protein kinase C alpha.
For `CCCCCCCCCCCCCC(=O)O[C@@H]1CC(=O)O[C@H]1CO`, the affinity, expressed as Ki, was 1500 nM.

With `CCCCCCCCCCCCCCOC(=O)C[C@@H]1CC(=O)O[C@H]1CO`, affinity was put at a Ki of 1470 nM.

Consider `CCCCCCCCCCCCCC(=O)O[C@@H]1CC(=O)O[C@H]1CCO`, for which the Ki was 880 nM.

Compound `CCCCCCCCCCCCCC(=O)OC[C@@H]1CC(=O)O[C@H]1CO` yielded a Ki of 3100 nM.

Consider `CCCCCCCCCCCCCCOC(=O)C[C@@H]1CC(=O)O[C@H]1CCO`, for which the Ki is 18600 nM.

Another assay addresses Protein kinase C (PKC). The assay is described as follows: Inhibition of [3H]PDBU binding to protein kinase C mixture. The format is protein assay, Rattus norvegicus.
As to `CCCCCCCCCCCCCC(=O)O[C@@H]1CC(=O)O[C@H]1CO`, the Ki was 2500 nM.
